Test results: BindingDB's records for doi:10.1016/j.bmcl.2014.02.013 (Bristol-Myers Squibb, 2014)

Test: Antagonist activity at CCR2 in human monocytes assessed as reduction of chemotaxis in presence of […] BSA

Going from `CC(C)N(C)[C@@H]1CC[C@H](N2CC[C@H](NC(=O)c3cccc(C(F)(F)F)c3)C2=O)[C@H](CS(C)(=O)=O)C1` to `CCS(=O)(=O)C[C@@H]1C[C@H](N(C)C(C)C)CC[C@@H]1N1CC[C@H](NC(=O)c2cccc(C(F)(F)F)c2)C1=O`, the IC50 falls from 2.6 nM to 0.6 nM (4.3-fold). The second is the more potent here.

`CC(C)N(C)[C@@H]1CC[C@H](N2CC[C@H](NC(=O)c3cccc(C(F)(F)F)c3)C2=O)[C@H](CS(=O)(=O)C(C)C)C1` and `CC(C)N(C)[C@@H]1CC[C@H](N2CC[C@H](NC(=O)c3cccc(C(F)(F)F)c3)C2=O)[C@H](CS(=O)(=O)C(C)(C)C)C1` are the same in IC50: 0.2 nM for the first, 0.2 nM for the second.
